Results as given in patent US20240299415A1, “TREATMENT METHOD FOR INTERSTITIAL PNEUMONIA” (priority 2020, published 2024).

Legend:
Type in all cases: in vivo
[1] = system: bleomycin-induced pulmonary fibrosis model in rats; test: Dexamethasone side effect indicators (blood lipid metabolism) in the bleomycin-induced rat pulmonary fibrosis model; conditions: FIG. 3; for leptin level compared with the normal control rats: bleomycin model rats
Procedure: (§1) The quarantine and domestication period was 1 week, after which rats were serpentinely grouped by body weight into control and interstitial pneumonia model groups. On day 0 of the study, rats in the model group were given a single dose of 5 mg/kg bleomycin by a single intratracheal injection of bleomycin. The rats in the control group were given a single drop of saline. Immediately after completion, the animals were placed in an upright position and rotated to facilitate uniform distribution of the drug in the lungs. The animals were placed prone in a warm environment for natural awakening. Animals were fed and watered freely after awakening.
Serum potassium, glucose, triglycerides (TGs), total cholesterol (TC), free fatty acid (FFA), high density lipoprotein (HDL-c), low density lipoprotein (LDL-c), corticosterone (Corticosterone), and blood glucose were measured. HDL-c), low-density lipoprotein cholesterol (LDL-c), corticosterone (CORT), insulin, leptin, 5-hydroxy tryptamine (5-HT), […] norepinephrine (NE).

[2] = system: bleomycin-induced pulmonary fibrosis model in rats; test: Pro-fibrotic proteins and type I collagen in lung tissue of the bleomycin-induced rat pulmonary fibrosis model; conditions: FIG. 2; for multiple pro-fibrotic proteins and collagen type I in rat lung tissues (overall statement): compared with the model group, N=3
Procedure: as §1
(§2) After the last administration, rats in each group were fasted without water for 12 h, anesthetized by intraperitoneal injection of […] chloral hydrate (3.5 mL/kg), blood was taken from the abdominal aorta, and the serum was separated by centrifugation at 3500 rpm for 15 min. ELISA was performed to detect the cytokines TNF-α, IL-1β, IFN-γ, IL-6, TGF-β1, and IL-4 in alveolar lavage fluid and serum, MCP-1/CCL2, and to detect the content of HYP, MMP2, MMP9, αvβ6, and VEGF in lung tissues, the steps were the same as the standard procedure of the kit.

[3] = system: bleomycin-induced rat model of pulmonary fibrosis; test: Blood inflammatory and pro-fibrotic cytokines (ELISA) in the bleomycin-induced rat model of pulmonary fibrosis; conditions: for bleomycin-induced changes of multiple inflammatory cytokines in the blood of rats (overall statement): compared with the model group, N=6-10
Procedure: as §1, §2

[4] = bleomycin model rats, change statistically significant
[5] = SD rats, bleomycin 5 mg/kg intratracheal day 0, drug by gavage once daily days 1-28, FIG. 1
[6] = bleomycin decreased the level, drug once daily days 1-28, FIG. 1

Question: Which “leptin level compared with the normal control rats” value [1] does the source give for `C[C@@H]1C[C@H]2[C@@H]3CCC4=CC(=O)C=C[C@]4(C)[C@@]3(F)[C@@H](O)C[C@]2(C)[C@@]1(O)C(=O)CO` [dexamethasone] here?
Answer: significantly reduced

Question: What about the “total cholesterol in the blood” value ([1]; dexamethasone treatment in bleomycin model rats) of the same compound?
Answer: increase

Question: What about the “triglycerides in the blood” value ([1]; dexamethasone treatment in bleomycin model rats, increase more pronounced than for total cholesterol) of the same compound?
Answer: increase

Question: Which “CXCL-12 level in lung tissue” value ([2]; bleomycin model rats) does the source give for `CCCCCC(=O)O[C@]1(C(C)=O)CC[C@H]2[C@@H]3CCC4=CC(=O)CC[C@]4(C)[C@H]3CC[C@@]21C` [hydroxyprogesterone caproate] here?
Answer: reduced

Question: And the “MMP9 level in lung tissue” value ([2]; bleomycin model rats)?
Answer: reduced

Question: And the “collagen type I COL I protein level in lung tissue” value ([2]; bleomycin model rats)?
Answer: reduced

Question: What about the “MMP2 level in lung tissue” value [2, 4] of the same compound?
Answer: reduced

Question: What about the “PDGF level in lung tissue” value [2, 4] of the same compound?
Answer: reduced

Question: What about the “SMAD2 level in lung tissue” value [2, 4] of the same compound?
Answer: reduced

Question: And the “SMAD3 level in lung tissue” value [2, 4]?
Answer: reduced

Question: What about the “TGF-β1 level in lung tissue” value [2, 4] of the same compound?
Answer: reduced

Question: And the “multiple pro-fibrotic proteins and collagen type I in rat lung tissues (overall statement)” value [2]?
Answer: significant inhibitory effects

Question: And the “multiple pro-fibrotic proteins and collagen type I in rat lung tissues (overall statement)” value ([2]; listed as 17-αhydroxyprogesterone)?
Answer: significantly ameliorated

Question: What about the “leptin level compared with the normal control rats” value [1] of the same compound?
Answer: significantly reduced

Question: And the “blood level of IL-1β” value [3, 5]?
Answer: significantly reduced

Question: And the “blood level of IL-6” value [3, 5]?
Answer: significantly reduced

Question: What about the “blood level of MCP-1” value [3, 5] of the same compound?
Answer: significantly reduced

Question: What about the “blood level of TGF-β1” value [3, 5] of the same compound?
Answer: significantly reduced

Question: What about the “blood level of TNF-α” value [3, 5] of the same compound?
Answer: significantly reduced

Question: And the “blood level of IFN-γ” value [3, 6]?
Answer: significantly and statistically increased

Question: And the “blood level of IL-4” value [3, 6]?
Answer: significantly and statistically increased

Question: And the “bleomycin-induced changes of multiple inflammatory cytokines in the blood of rats (overall statement)” value ([3]; FIG. 1)?
Answer: significantly improve

Question: What about the “bleomycin-induced changes of multiple inflammatory cytokines in the blood of rats (overall statement)” value ([3]; FIG. 1, listed as 17-αhydroxyprogesterone) of the same compound?
Answer: significantly ameliorated

Question: What about the “combined improvement effect on inflammatory and pro-fibrotic factors in the blood, compared with pirfenidone” value ([3]; versus positive control drug pirfenidone (54 mg/kg)) of the same compound?
Answer: significantly better than that of the positive control drug pirfenidone
